The subject of series [1] is human hepatocarcinoma SMMC7721 cells. Kind of series: MTT assay, growth inhibition of SMMC7721 cells. Type of series: cell-based. The protocol:
(§1) Human cancer cell lines, human lung adenocarcinoma A549 cells, human hepatocarcinoma SMMC7721 cells, human colorectal carcinoma SW620 cells and HaCaT cells were purchased from American Type Culture Collection (ATCC, Manassas, VA, USA). All cell lines were maintained in Dulbecco’s Modified Eagle Medium (DMEM) media supplemented with fetal bovine serum (10%), penicillin (100 units/mL), and streptomycin (50 units/mL) at 37 °C in a CO2 incubator (95% relative humidity, 5% CO2).
(§2) Cell viability was confirmed by measuring the ability of cells to transform 3-(4,5-dimethylthia-zol-2-yl)-2,5-diphenyltetrazolium bromide (MTT) to a purple formazan dye. Cells were seeded in 96-well tissue culture plates (3 × 10^3 cells per well) for 24 h. The cells were then incubated with the tested compounds at different concentrations for 72 h. After incubation, 20 µL per well of MTT solution (5 mg/mL in phosphate buffered saline, PBS) was added, followed by incubation for a further 5 h. The medium was aspirated and replaced with 150 µL/well of DMSO to dissolve the formazan salt formed. The colour intensity, which reflects the cell growth condition, was measured at 570 nm using a microplate spectrophotometer (SpectroAmaxTM250, BioTek Instruments, Inc., Winooski, VT, USA).

In series [2] the test system is human lung adenocarcinoma A549 cells. Nature of the series: MTT assay, growth inhibition of A549 cells. Type of series: cell-based. The protocol: as §1, §2
The subject of another series is HaCaT cells. Kind of series: MTT assay, normal HaCaT cells. The note with it: 72 h; for IC50: normal cells. Type of series: cell-based, human. The protocol: as §1, §2
The subject of series [3] is human colorectal carcinoma SW620 cells. Kind of series: MTT assay, growth inhibition of SW620 cells. It is filed as cell-based. As to the method: as §1, §2
The test system of series [4] is bcl-2 G4 DNA. Nature of the series: Fluorescence quenching of EB + bcl-2 G4 DNA system. As to conditions: [1] = 20.89 μM, [EB] = 16 μM, [DNA] = 2 μM, excitation 350 nm, Tris-HCl KCl buffer pH 7.2. Type of series: binding. The protocol:
(§3) All reagents were purchased from commercial suppliers and used without further purification. Solvents were dried and purified by conventional methods prior to use. Distilled water was used in all experiments. Bcl-2 G-quadruplex DNA (5′-[…]-3′) and 5′-FAM-bcl-2-TAMRA-3′ were purchased from Sangon Biotech Co., Ltd. (Shanghai, China) Bcl-2 G-quadruplex DNA formed a G-quadruplex conformation as literature by renaturation for 24 h at 4 °C, after denaturation for 5 min at 90 °C [29]. All aqueous solutions were prepared with doubly distilled water. The Tris-HCl buffer consisting of Tris and KCl, and the pH value was adjusted to 7.2 by HCl solution, which was applied to UV titration, Fluorescence emission titrations.
Fluorescence spectroscopy measurements were performed on a RF-5301 fluorescence spectrophotometer using a 1 cm path length quartz cell. Fluorescence quenching of the EB + bcl-2 G4 DNA system can be used for a compound having an affinity to DNA in spite of its binding mode, and only measures the ability of the compound to affect the EB fluorescence intensities in the EB + bcl-2 G4 DNA system. The titration processes were repeated until there was no apparent change in the spectra for at least three titrations, indicating the achievement of the binding saturation.

Series [5] deals with bcl-2 G-quadruplex DNA (bcl-2 G4 DNA) (DNA, G4) CGGGCGCGGGAGGAAGGGGGCGGGAGC
Kind of series: UV-vis absorption titration. The note with it: K+ (KCl, concentration not given); Tris-HCl pH 7.2; fixed 20 μM compound (60 μM in Figure 3 legend); intrinsic binding constant.

In series [6] the test system is 5'-FAM-bcl-2-TAMRA-3' (DNA, G4) CGGGCGCGGGAGGAAGGGGGCGGGAGC
Kind of series: FRET melting. As to conditions: Tris-HCl buffer; 6.0 μM compound (2.4 °C at 3.0 μM); 1 μM DNA (0.2 μM in Figure 4 legend).

The subject of the next series is bcl-2 G-quadruplex DNA. Nature of the series: Electronic absorption titration with bcl-2 G-quadruplex DNA. It is filed as binding. The protocol: as §3
Electronic absorption spectra were recorded on a Shimadzu UV-2550 spectrophotometer using 1 cm path length quartz cuvettes (3 mL). The absorption titration of the target complex in Tris-HCl buffer was performed by using a fixed complex concentration to which increments of the DNA stock solution were added. The concentration of the complex solution was 20 μM and bcl-2 G4 DNA was added by degrees. Complex-DNA solutions were allowed to incubate for 3 min before the absorption spectra were recorded.

Series [7] relates to bcl-2 G4 DNA. Kind of series: FRET melting assay. It is filed as binding. The protocol:
The fluorescent labeled oligonucleotide, bcl-2 G-quadruplex DNA (5′-FAM-[…]-TAMRA-3′, FAM: carboxyfluorescein, TAMRA: 6-carboxy tetramethylrhodamine) used as the FRET probe was diluted in TrisHCl buffer and then annealed by being heated to 90 °C for 5 min, followed by slowly cooling to room temperature. Ds26 duplex DNA ([…]) was competitive binders to evaluate the selective binding ability of 1 with bcl-2 G4 DNA. Fluorescence melting curves were determined with a Bio-RadiQ5 realtime PCR detection system (Bio-Rad, Berkeley, CA, USA), by using a total reaction volume of […], with labeled oligonucleotide (1 μM) and different concentrations of complex in Tris-HCl buffer. A constant temperature was maintained for 30 s prior to each reading to ensure a stable value. Final analysis of the data was carried out by using Origin7.5 (Origin Lab, Northampton, MA, USA).

The subject of series [8] is bcl-2 G-quadruplex DNA (bcl-2 G4 DNA) (DNA, G4) CGGGCGCGGGAGGAAGGGGGCGGGAGC
Nature of the series: ethidium bromide displacement fluorescence. As to conditions: K+ (KCl, concentration not given); Tris-HCl KCl pH 7.2; EB 16 μM, DNA 2 μM; I/I0 0.83 at 20.89 μM compound.

The test system of another series is A549 cells. Nature of the series: Flow cytometric analysis of cell cycle arrest (PI staining). Type of series: cell-based, human. As to conditions: 20 μM, 24 h, versus control (55.75%). As to the method:
Cells were seeded in six-well tissue culture plates (1 × 10^5 cells per well), and the cell cycle arrest was analyzed by flow cytometry as previously described. […] The fixed cells were washed with PBS and stained with propidium iodide (PI) for 15 min in the dark, then the cell cycle arrest was analyzed with an Epics XL-MCL flow cytometer (Beckman Coulter, Miami, FL, USA).

Like-named read-outs stand apart in the source and are kept apart here.

`N.N.[Cl][Pt][Cl]` [cis-platin, reference compound]: the IC50 in series [1] (72 h, read-out: IC50 (μM) SMMC-7721) is 11.7 ± 1.45 µM; in [2] (72 h) it was 32 ± 4.66 µM; with HaCaT cells it was 18.5 ± 1.64 µM; in series [3] (72 h) it was 6.29 ± 0.17 µM.
For `Oc1cccc(-c2nc3c4cccnc4c4ncccc4c3[nH]2)c1` [Compound 4], the IC50 was determined as 24.2 ± 2.28 µM in series [1] (Homo sapiens, SMMC-7721, 72 h); 3 ± 0.14 µM in [2] (Homo sapiens, A549, 72 h); 13.9 ± 0.64 µM with HaCaT cells (Homo sapiens, HaCaT); 16.5 ± 0.28 µM in [3] (Homo sapiens, SW-620, 72 h).
Regarding `FC(F)(F)c1cccc(-c2nc3c4cccnc4c4ncccc4c3[nH]2)c1` [Compound 2], the IC50 worked out at 12.9 ± 0.51 µM in [1] (Homo sapiens, SMMC-7721, 72 h); 13.8 ± 0.53 µM in [2] (Homo sapiens, A549, 72 h); 17.5 ± 0.58 µM in the series with HaCaT cells (Homo sapiens, HaCaT); 27.2 ± 0.53 µM in series [3] (Homo sapiens, SW-620, 72 h).
For the molecule `O=[N+]([O-])c1cccc(-c2nc3c4cccnc4c4ncccc4c3[nH]2)c1` [Compound 1], the “relative fluorescence intensity (I/I0) of EB-DNA” value in the series with bcl-2 G4 DNA [4] is on record as “about 0.83”. Further, the Kb in series [5] is on record as ~ 8.7 × 10^7 M^-1. Moreover, the IC50 worked out at 17.5 ± 1.84 µM in [1] (Homo sapiens, SMMC-7721, 72 h); 15 ± 1.01 µM in [2] (Homo sapiens, A549, 72 h); 27.3 ± 1.49 µM in the series with HaCaT cells (Homo sapiens, HaCaT); 26.5 ± 0.59 µM in series [3] (Homo sapiens, SW-620, 72 h). In the series on HaCaT cells, the “toxicity in normal cells” value is given as “low toxicity in normal cells”. In series [6], the ΔTm is ~ 11 °C. Further, the “hyperchromism at the IL absorption band” value in the series on bcl-2 G-quadruplex DNA (Tris-HCl buffer pH 7.2, about 273 nm, on addition of bcl-2 G-quadruplex DNA) was “about 14.1%”. For the same molecule, the “bathochromic shift Δλ at the IL absorption band” value in the series with bcl-2 G-quadruplex DNA (Tris-HCl buffer pH 7.2, on addition of bcl-2 G-quadruplex DNA) worked out at 2.1 nm. For the same molecule, the entries for the “ΔTm of bcl-2 G4 DNA” value in the series on bcl-2 G4 DNA [7] (3.0 μM compound) and with bcl-2 G4 DNA [7] (6.0 μM compound) were “about 2.4 °C” and “about 11 °C”, respectively. Besides, the binding entry in [8] is listed as “weak”. In the series with A549 cells, the “ratio of G1-phase higher than that of the control” value was “about 12%”.
`Clc1cccc(-c2nc3c4cccnc4c4ncccc4c3[nH]2)c1` [Compound 3]: the IC50 was found to be 12.6 ± 0.35 µM in series [1] (Homo sapiens, SMMC-7721, 72 h); 14.3 ± 0.21 µM in series [2] (Homo sapiens, A549, 72 h); 13.4 ± 0.56 µM with HaCaT cells (Homo sapiens, HaCaT); 16 ± 0.29 µM in series [3] (Homo sapiens, SW-620, 72 h).

For the origin of these results see article PMC6154642 (Molecules : A Journal of Synthetic Chemistry and Natural …, 2017).
